Assay results published in patent US6172066A, “Dihydropyrimidines and uses thereof” (Synaptic Pharmaceutical Corporation, priority 1997, dated 2001).
Where a name gives a salt, the structure may show the parent alone.

Target: T1, α1A Human Adrenergic Receptor (Homo sapiens, UniProt P35348)
T1 construct: The entire coding region of α1A (1401 bp); expressed in transfected cells
T1 sequence (P35348 1-466): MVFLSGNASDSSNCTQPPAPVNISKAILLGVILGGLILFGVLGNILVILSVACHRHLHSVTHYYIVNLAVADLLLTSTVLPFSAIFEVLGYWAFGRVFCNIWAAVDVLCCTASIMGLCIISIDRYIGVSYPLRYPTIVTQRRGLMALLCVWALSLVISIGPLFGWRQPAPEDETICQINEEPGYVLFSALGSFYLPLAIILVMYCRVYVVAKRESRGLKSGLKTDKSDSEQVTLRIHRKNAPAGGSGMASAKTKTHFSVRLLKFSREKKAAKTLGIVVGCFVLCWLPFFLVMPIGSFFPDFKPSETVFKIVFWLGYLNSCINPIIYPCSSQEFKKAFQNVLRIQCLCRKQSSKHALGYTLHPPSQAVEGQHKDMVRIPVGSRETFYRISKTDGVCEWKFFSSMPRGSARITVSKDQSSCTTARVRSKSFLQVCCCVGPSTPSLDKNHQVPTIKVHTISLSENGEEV
Experiment: Radioligand binding, [3H]prazosin displacement, cloned human α1A receptor (LM(tk-) cell membranes)
Conditions: [3H]prazosin 0.5 nM, 37° C., 20 min
Procedure: The activity of compounds at the different human receptors was determined in vitro using cultured cell lines that selectively express the receptor of interest. These cell lines were prepared by transfecting the cloned cDNA or cloned genomic DNA or constructs containing both genomic DNA and cDNA encoding the human α-adrenergic receptors as follows:
The entire coding region of α1A (1401 bp), including 400 base pairs of 5' untranslated sequence (5' UT) and 200 bp of 3' untranslated sequence (3' UT), was cloned into the KpnI site of the polylinker-modifiedpCEXV-3-derived eukaryotic expression vector, EXJ.RH. The construct involved ligating three partial overlapping fragments: a 5' 0.6kb HincII genomic clone, a central 1.8 EcoRI hippocampal cDNA clone, and a 3' 0.6Kb PstI genomic clone. The hippocampal cDNA fragment overlaps with the 5' and 3' genomic clones so that the HincII and PstI sites at the 5' and 3' ends of the cDNA clone, respectively, were utilized for ligation. This full-length clone was cloned into the KpnI site of the expression vector, using the 5' and 3' KpnI sites of the fragment, derived from vector (i.e., pBluescript) and 3'-untranslated sequences, respectively. Stable cell lines were selected as described above. The stable cell line expressing the human α1A receptor used herein was designated L-α1C (old nomenclature) and was deposited with the American Type Culture Collection, 12301 Parklawn Drive, Rockville, Md. 20852, U.S.A. under the provisions of the Budapest Treaty for the International Recognition of the Deposit of Microorganisms for the Purposes of Patent Procedure. The cell line expressing the human α1A receptor was accorded Accession No. CRL 11140, on Sep. 25, 1992.
Transfected cells from culture flasks were scraped into 5 ml of 5 mM Tris-HCl, 5 mM EDTA, pH 7.5, and lysed by sonication. The cell lysates were centrifuged at 1000 rpm for 5 min at 4° C., and the supernatant was centrifuged at 30,000×g for 20 min at 4° C. The pellet was suspended in 50 mM Tris-HCl, 1 mM MgCl2, and 0.1% ascorbic acid at pH 7.5. Binding of the α1 antagonist [^3 H]prazosin (0.5 nM, specific activity 76.2 Ci/mmol) to membrane preparations of LM(tk-) cells was done in a final volume of 0.25 ml and incubated at 37° C. for 20 min. Nonspecific binding was determined in the presence of 10 μM phentolamine. The reaction was stopped by filtration through GF/B filters using a cell harvester. Inhibition experiments, routinely consisting of 7 concentrations of the tested compounds, were analyzed using a non-linear regression curve-fitting computer program to obtain Ki values.

Row | hα1A pKi | Compound
1 | 9.51 | cis-6-(3,4,5-Trifluorophenyl)-1-{N-[2-(4-cyano-4-phenyl-cyclohexylamino)ethyl]}-carboxamido-5-acetyl-4-methoxymethyl-2-oxo-1,2,3,6-tetrahydropyrimidine hydrochloride [Example 2]

Same assay, conditions: [3H]prazosin 0.5 nM, 37° C., 20 min, read-out: hα1A pKi (converted)

Row | Ki [nM] | Compound
2 | 0.102 | COC(=O)C1=C(C)NC(=O)N(C(=O)NCCN[C@H]2CC[C@](C#N)(c3ccccc3F)CC2)C1c1ccc(F)c(F)c1 (single isomer, unassigned; (+)) [Example 13, (+)-cis-6-(3,4-Difluorophenyl)-1-{N-[2-(4-cyano-4-(2-fluorophenyl)-cyclohexylamino)ethyl]}carboxamido-5-methoxycarbonyl-4-methyl-2-oxo-1,2,3,6-tetrahydropyrimidine hydrochloride]
3 | 0.219 | COCC1=C(C(=O)OC)C(c2ccc(F)c(F)c2)N(C(=O)NCCN[C@H]2CC[C@](C(=O)OC)(c3ccccc3)CC2)C(=O)N1 (single isomer, unassigned; (+)) [Example 11, (+)-cis-6-(3,4-Difluorophenyl)-1-{N-[2-(4-methoxycarbonyl-4-phenyl-cyclohexylamino)ethyl]}carboxamido-5-methoxycarbonyl-4-methoxymethyl-2-oxo-1,2,3,6-tetrahydropyrimidine hydrochloride]
4 | 0.933 | COCC1=C(C(=O)OC)C(c2ccc(F)c(F)c2)N(C(=O)NCCN[C@H]2CC[C@](C#N)(c3ccccn3)CC2)C(=O)N1 (single isomer, unassigned; (+)) [Example 14, (+)-cis-6-(3,4-Difluorophenyl)-1-{N-[2-(4-cyano-4-(2-pyridyl)-cyclohexylamino)ethyl]}carboxamido-5-methoxycarbonyl-4-methoxymethyl-2-oxo-1,2,3,6-tetrahydropyrimidine hydrochloride]

Second part, the compound before the results:

Row | Compound | Ki [nM]
5 | COCC1=C(C(=O)OC)C(c2ccc(F)c(F)c2)N(C(=O)NCCN[C@H]2CC[C@H](c3ccccn3)CC2)C(=O)N1 (single isomer, unassigned; (+)) [Example 7, (+)-trans-6-(3,4-Difluorophenyl)-1-{N-[2-(4-(2-pyridyl)-cyclohexylamino)ethyl]}carboxamido-5-methoxycarbonyl-4-methoxymethyl-2-oxo-1,2,3,6-tetrahydropyrimidine hydrochloride] | 4.47
6 | COCC1=C(C(=O)OC)C(c2ccc(F)c(F)c2)N(C(=O)NCCN[C@H]2CC[C@](C#N)(c3ccccc3)CC2)C(=O)N1 (single isomer, unassigned; (+)) [Example 4, (+)-cis-6-(3,4-Difluorophenyl)-1-{N-[2-(4-cyano-4-phenyl-cyclohexylamino)ethyl]}carboxamido-5-methoxycarbonyl-4-methoxymethyl-2-oxo-1,2,3,6-tetrahydropyrimidine hydrochloride] | 0.135
7 | CCC1=C(C(N)=O)C(c2ccc(F)cc2F)N(C(=O)NCCN[C@H]2CC[C@](C#N)(c3ccccc3)CC2)C(=O)N1 (single isomer, unassigned; (+)) [Example 3, (+)-cis-5-Carboxamido-6-(2,4-difluorophenyl)-1-{N-[2-(4-cyano-4-phenyl-cyclohexylamino)ethyl]}carboxamido-4-ethyl-2-oxo-1,2,3,6-tetrahydropyrimidine hydrochloride] | 0.49
8 | COCC1=C(C(=O)OC)C(c2ccc(F)c(F)c2)N(C(=O)NCCN[C@H]2CC[C@@](C#N)(c3ccccc3)CC2)C(=O)N1 (single isomer, unassigned; (+)) [Example 5, (+)-trans-6-(3,4-Difluorophenyl)-1-{N-[2-(4-cyano-4-phenyl-cyclohexylamino)ethyl]}carboxamido-5-methoxycarbonyl-4-methoxymethyl-2-oxo-1,2,3,6-tetrahydropyrimidine hydrochloride] | 0.126
